Test results: patent US9510598B2, “Nitrogen-containing heterocyclic compounds for plant disease control” (BAYER CROPSCIENCE AG, priority 2012, dated 2016)

Type: physicochemical
Conditions: HPLC on reversed phase columns, method [a]: pH 2.7, 0.1% formic acid in water / acetonitrile, linear gradient 10% to 95% acetonitrile

| SMILES | log P |
| --- | --- |
| CCn1cc(CNC(=O)C2(OC)CC(c3cc(C)c4ncc(Br)cc4c3)=NO2)c(C)n1 (stereo not shown) [compound 600] | 2.96[a] |
| C#Cc1cnc2c(Cl)cc(C3=NOC(OC)(C(=O)NCCCOCC)C3)cc2c1 (stereo not shown) [compound 594] | 2.88[a] |
| C#Cc1cnc2c(C)cc(C3=NOC(OC)(C(=O)NC(C)C)C3)cc2c1 (stereo not shown) [compound 604] | 2.94[a] |
| CC1(C(=O)NCc2ccncn2)CC(c2ccc3ncc(Br)cc3c2)=NO1 (stereo not shown) [compound 642] | 2.01[a] |
| CCn1cc(CNC(=O)C2(C)CC(c3ccc4ncc(Br)cc4c3)=NO2)c(OC)n1 (stereo not shown) [compound 639] | 2.63[a] |
| CCOCCCNC(=O)C1(OC)CC(c2cc(Cl)c3ncc(Br)cc3c2)=NO1 (stereo not shown) [compound 577] | 3.19[a] |
| CC(O)C1(C(=O)NC2CCC2)CC(c2ccc3ncc(Br)cc3c2)=NO1 (stereo not shown) [compound 563] | 2.41[a] |
| CC(C)NC(=O)C12CCCCC1C(c1ccc3ncc(Br)cc3c1)=NO2 (stereo not shown) [compound 272] | 3.55[a] |
| C#Cc1cnc2ccc(C3=NOC(C)(C(=O)NCc4cn(CCCCC)nc4C)C3)cc2c1 (stereo not shown) [compound 654] | 2.96[a] |
| C#Cc1cnc2c(Cl)cc(C3=NOC(OC)(C(=O)NC4CCC4)C3)cc2c1 (stereo not shown) [compound 592] | 3.02[a] |
| C#Cc1cnc2ccc(C3=NOC(C)(C(=O)NC(C)c4ccc(OC(F)(F)F)cc4)C3)cc2c1 (stereo not shown) [compound 342] | 3.71[a] |
| C#Cc1cnc2ccc(C3=NOC(C)(C(=O)NCc4cn(CC)nc4SC)C3)cc2c1 (stereo not shown) [compound 635] | 2.51[a] |
| C#Cc1cnc2ccc(C3=NOC(C)(C(=O)NC(C)c4nn(C)c(=O)n4C)C3)cc2c1 (stereo not shown) [compound 352] | 1.76[a] |
| C#Cc1cnc2ccc(C3=NOC(C)(C(=O)NC(c4cccc(C)c4)C(F)(F)F)C3)cc2c1 (stereo not shown) [compound 354] | 3.92[a] |
| Cc1cc(C)nc(CNC(=O)C2(C)CC(c3ccc4ncc(Br)cc4c3)=NO2)n1 (stereo not shown) [compound 662] | 2.51[a] |
| C#Cc1cnc2c(Cl)cc(C3=NOC(OC)(C(=O)NC(C)C)C3)cc2c1 (stereo not shown) [compound 590] | 2.84[a] |
| C#Cc1cnc2ccc(C3=NOC(C)(C(=O)NCc4cnn(CC(F)F)c4)C3)cc2c1 (stereo not shown) [compound 647] | 2.17[a] |
| C#Cc1cnc2ccc(C3=NOC(C)(C(=O)NCc4cccc(C(C)C)n4)C3)cc2c1 (stereo not shown) [compound 660] | 2.07[a] |

The next lines start with the values.

| log P | SMILES |
| --- | --- |
| 2.66[a] | COc1ccc(CNC(=O)C2(C)CC(c3ccc4ncc(Br)cc4c3)=NO2)cn1 (stereo not shown) [compound 679] |
| 2.28[a] | COc1ccc(CNC(=O)C2(C)CC(c3ccc4ncc(Br)cc4c3)=NO2)nn1 (stereo not shown) [compound 675] |
| 2.77[a] | C#Cc1cnc2ccc(C3=NOC(C)(C(=O)NCc4cccc(OC)n4)C3)cc2c1 (stereo not shown) [compound 665] |
| 1.34[a] | C#Cc1cnc2ccc(C3=NOC(C)(C(=O)NCc4cc(OC)ccn4)C3)cc2c1 (stereo not shown) [compound 677] |

Same assay, conditions: HPLC on reversed phase columns, method [a]: pH 2.7, 0.1% formic acid in water and acetonitrile, linear gradient 10% to 95% acetonitrile

| SMILES | log P |
| --- | --- |
| C#Cc1cnc2ccc(C3=NOC(C)(C(=O)NCc4cncc(F)c4)C3)cc2c1 (stereo not shown) [compound 781] | 2.13[a] |
| CC1(C(=O)N2CCOCC2)CC(c2ccc3ncc(Br)cc3c2)=NO1 (stereo not shown) [compound 771] | 2.48[a] |
| C#Cc1cnc2ccc(C3=NOC(OC)(C(=O)NCc4cn(CC)nc4Cl)C3)cc2c1 (stereo not shown) [compound 705] | 2.51[a] |
| CC1(C(=O)NC2CC(F)(F)C2)CC(c2ccc3ncc(Br)cc3c2)=NO1 (stereo not shown) [compound 755] | 2.86[a] |
| CC1(C(=O)N/C(=N/O)C(C)(C)C)CC(c2ccc3ncc(Br)cc3c2)=NO1 (stereo not shown) [compound 739] | 2.88[a] |
| CC(C)/C(=N\O)NC(=O)C1(C)CC(c2ccc3ncc(Br)cc3c2)=NO1 (stereo not shown) [compound 738] | 2.50[a] |
| CC1(C(=O)NCc2cc(C#N)ccn2)CC(c2ccc3ncc(Br)cc3c2)=NO1 (stereo not shown) [compound 748] | 2.48[a] |
| C#Cc1cnc2ccc(C3=NOC(C)(C(=O)NCc4cccnc4OCC)C3)cc2c1 (stereo not shown) [compound 785] | 2.84[a] |
| C#CC1(NC(=O)C2(C)CC(c3ccc4ncc(Br)cc4c3)=NO2)CC1 (stereo not shown) [compound 718] | 2.64[a] |
| C#Cc1cnc2ccc(C3=NOC(C)(C(=O)NCc4ccnc(SC(C)(C)C)c4)C3)cc2c1 (stereo not shown) [compound 796] | 3.02[a] |
| CC1(C(=O)NCc2ccnc(NC3CC3)c2)CC(c2ccc3ncc(Br)cc3c2)=NO1 (stereo not shown) [compound 761] | 1.58[a] |
| C#Cc1cnc2ccc(C3=NOC(C)(C(=O)NCc4cccnc4N(C)C)C3)cc2c1 (stereo not shown) [compound 808] | 1.43[a] |
| CC1(C(=O)NCc2ccncc2F)CC(c2ccc3ncc(Br)cc3c2)=NO1 (stereo not shown) [compound 811] | 2.27[a] |
| C#Cc1cnc2ccc(C3=NOC(C)(C(=O)NCC4CCC4)C3)cc2c1 (stereo not shown) [compound 778] | 2.88[a] |
| C#Cc1cnc2ccc(C3=NOC(C)(C(=O)NCc4cc(C#N)ccn4)C3)cc2c1 (stereo not shown) [compound 751] | 2.20[a] |
| C#Cc1cnc2ccc(C3=NOC(C)(C(=O)NCC4CC(F)(F)C4)C3)cc2c1 (stereo not shown) [compound 813] | 2.71[a] |
| C=C(C)CNC(=O)C1(C)CC(c2ccc3ncc(Br)cc3c2)=NO1 (stereo not shown) [compound 715] | 2.90[a] |
| C#CC1(C(=O)NCc2cn(CCC)nc2C)CC(c2ccc3ncc(Br)cc3c2)=NO1 (stereo not shown) [compound 700] | 2.78[a] |
| C#Cc1cnc2ccc(C3=NOC(C)(C(=O)NCc4ccc(O)nc4)C3)cc2c1 (stereo not shown) [compound 806] | 1.54[a] |
| C#Cc1cnc2ccc(C3=NOC(C)(C(=O)NCc4ccnc(SC)c4)C3)cc2c1 (stereo not shown) [compound 798] | 2.32[a] |
| CC(C)Oc1cc(CNC(=O)C2(C)CC(c3ccc4ncc(Br)cc4c3)=NO2)ccn1 (stereo not shown) [compound 763] | 3.09[a] |

Same assay, conditions: method [a]: HPLC/LC-MS on reversed phase at pH 2.7, 0.1% formic acid in water / acetonitrile, gradient 10% to 95% acetonitrile

| SMILES | log P |
| --- | --- |
| CCn1cc(CNC(=S)C2(OC)CC(c3ccc4ncc(Br)cc4c3)=NO2)c(C)n1 (stereo not shown) [compound 478] | 3.15[a] |
| COc1nc2ccc(C3=NOC(C)(C(=O)NC(C)C)C3)cc2cc1I (stereo not shown) [compound 485] | 3.72[a] |
| CCn1cc(CNC(=O)C2(C)CC(c3ccc4ncc(-c5ccco5)cc4c3)=NO2)c(C)n1 (racemic) [compound 379] | 2.37[a] |
| CC(C)NC(=O)C1(C[Si](C)(C)C)CC(c2ccc3ncc(Br)cc3c2)=NO1 (stereo not shown) [compound 395] | 4.66[a] |
| CCn1cc(CNC(=O)C2(CC(=O)OC)CC(c3ccc4ncc(Br)cc4c3)=NO2)c(C)n1 (racemic) [compound 386] | 2.31[a] |
| CCOC1C(c2ccc3ncc(Br)cc3c2)=NOC1(C)C(=O)NC(C)C (racemic) [compound 393] | 3.35[a] |
| CC1CCCC(C)C1NC(=O)C1(C)CC(c2ccc3ncc(Br)cc3c2)=NO1 (racemic) [compound 372] | 4.29[a] |
| CC1(C(=O)NC2=NCCO2)CC(c2ccc3ncc(Br)cc3c2)=NO1 (stereo not shown) [compound 495] | 1.71[a] |
| CCn1nc(C)c(NC(=O)C2(C)CC(c3ccc4ncc(Br)cc4c3)=NO2)c1C (stereo not shown) [compound 492] | 2.41[a] |
| CCn1cc(CNC(=O)C2(C)CC(c3ccc4ncc(NC(=O)OC(C)(C)C)cc4c3)=NO2)c(C)n1 (stereo not shown) [compound 421] | 2.44[a] |

Same assay, conditions: method [a]: HPLC/LC-MS on reversed phase at pH 2.7, 0.1% formic acid in water / acetonitrile, linear gradient 10% to 95% acetonitrile

| SMILES | log P |
| --- | --- |
| CC1(C(=O)NCC2CCOc3ccccc32)CC(c2ccc3ncc(Br)cc3c2)=NO1 (stereo not shown) [compound 112] | 3.48^[a] |
| CC(C)NC(=O)C1(C)CC(c2ccc3ncc(C#N)cc3c2)=NO1 (stereo not shown) [compound 79] | 2.12^[a] |
| CC(C)NC(=O)C1(C(C)C)CC(c2ccc3ncc(Br)cc3c2)=NO1 (stereo not shown) [compound 62] | 3.51^[a] |
| CC1(C(=O)NCCc2ccc(OC(F)(F)F)cc2)CC(c2ccc3ncc(Br)cc3c2)=NO1 (stereo not shown) [compound 211] | 3.96^[a] |
| CCn1cc(CNC(=O)C2(C)CC(c3ccc4ncc([S+](C)[O-])cc4c3)=NO2)c(C)n1 (stereo not shown) [compound 145] | 1.34^[a] |
| CC(C)NC(=O)C1(C)CC(c2ccc3ncc([S+](C)[O-])cc3c2)=NO1 (stereo not shown) [compound 77] | 1.49^[a] |
| CC1(C(=O)NCc2nnco2)CC(c2ccc3ncc(Br)cc3c2)=NO1 (stereo not shown) [compound 204] | 2.17^[a] |
| CC(C)C1(C(=O)NC2CC2)CC(c2ccc3ncc(Br)cc3c2)=NO1 (stereo not shown) [compound 65] | 3.11^[a] |
| O=C(NC1CC1)C1(Cc2ccccc2)CC(c2ccc3ncc(Br)cc3c2)=NO1 (stereo not shown) [compound 60] | 3.46^[a] |
| C#Cc1cnc2ccc(C3=NOC(C)(C(=O)NCCc4ccc(Cl)cc4Cl)C3)cc2c1 (stereo not shown) [compound 212] | 3.7^[a] |
| CCCn1cc(CNC(=O)C2(C(F)(F)F)CC(c3ccc4ncc(Br)cc4c3)=NO2)c(C)n1 (stereo not shown) [compound 107] | 3.33^[a] |
| CC1(C(=O)NCc2ccc3c(c2)OCCO3)CC(c2ccc3ncc(Br)cc3c2)=NO1 (stereo not shown) [compound 118] | 3.04^[a] |
| CC1(C(=O)NCC2OCCc3ccccc32)CC(c2ccc3ncc(Br)cc3c2)=NO1 (stereo not shown) [compound 117] | 3.33^[a] |
| CCN1CCCC1CNC(=O)C1(C)CC(c2ccc3ncc(Br)cc3c2)=NO1 (stereo not shown) [compound 126] | 1.37^[a] |

Same assay, conditions: method [a]: HPLC/LC-MS on reversed phase at pH 2.7, 0.1% formic acid in water and acetonitrile, linear gradient 10% to 95% acetonitrile

| SMILES | Log P |
| --- | --- |
| CNC(=O)C1(C)CC(c2ccc3ncccc3c2)=NO1 (stereo not shown) [compound 2] | 1.3^[a] |
| CON(OC)C(=O)C1(C)CC(c2cc3cc(Br)cnc3c(F)c2F)=NO1 (stereo not shown) [compound 9] | 2.92^[a] |

Same assay, conditions: pH 2.7

| SMILES | chromatographic logP |
| --- | --- |
| CC(C)NC(=O)C1(C)CC(c2ccc3ncc(-c4cccs4)cc3c2)=NO1 (stereo not shown) [Compound No. 144] | 3.04 |

Same assay, conditions: reversed phase HPLC column; HPLC reversed phase, pH 2.7, 0.1% formic acid in water / acetonitrile, linear gradient 10% to 95% acetonitrile; calibration with alkan-2-ones; read-out: log P (HCOOH)

| SMILES | chromatographic logP |
| --- | --- |
| CC(C)NC(=O)C1(C)CC(c2ccc3ncc(-c4ccccc4)cc3c2)=NO1 (stereo not shown) [Compound No. 141] | 3.02 |
| CCn1cc(CNC(=O)C23OCCCC2C(c2ccc4ncc(Br)cc4c2)=NO3)c(C)n1 (stereo not shown) [Compound No. 266] | 2.59 |
| O=Cc1ccc2ncc(Cl)cc2c1 [3-chloroquinoline-6-carbaldehyde] | 1.96 |
